# Earlier results as cited in patent US9873661B2, “Small molecule malarial Aldolase-TRAP enhancers and glideosome inhibitors” (NEW YORK UNIVERSITY, priority 2011, dated 2018).
# Target: T1, plant plasma membrane H+-ATPase (PMA) and 14-3-3 (Nicotiana tabacum, UniProt P93343)
# T1 sequence (P93343 1-260): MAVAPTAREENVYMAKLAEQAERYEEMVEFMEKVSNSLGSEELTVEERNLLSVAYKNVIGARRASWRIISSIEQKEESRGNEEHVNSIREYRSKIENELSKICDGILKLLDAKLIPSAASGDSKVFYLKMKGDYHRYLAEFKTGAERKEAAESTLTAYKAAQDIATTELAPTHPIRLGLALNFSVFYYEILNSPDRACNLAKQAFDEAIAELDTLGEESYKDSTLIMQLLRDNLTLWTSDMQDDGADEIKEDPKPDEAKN
substance,measurement,value
fusioccin,increase of binding affinity between PMA and 14-3-3,approximately 90 fold
